Experimental data as given in ChEMBL document CHEMBL3108723, “Combatting resistant bacteria with the help of Beta-lactamase inhibitors” (2014).

Legend:
Format in all cases: functional
[1] = test system: Pseudomonas aeruginosa; assay: Antibacterial activity against Pseudomonas aeruginosa producing PER-1 and OXA-10 beta-lactamase assessed as reduction in MIC of ceftazidime at […] by broth microdilution method relative to control
[2] = test system: Pseudomonas aeruginosa; assay: Antibacterial activity against Pseudomonas aeruginosa producing AmpC beta-lactamase assessed as reduction in MIC of ceftazidime at […] by broth microdilution method relative to control
[3] = test system: Klebsiella pneumoniae; assay: Antibacterial activity against Klebsiella pneumoniae producing KPC2 beta-lactamase assessed as reduction in MIC of ceftazidime at […] by broth microdilution method relative to control

Measured: fold change (FC)

CC1=C[C@@H](C(N)=O)N2C[C@@H]1N(OS(=O)(=O)[O-])C2=O.[Na+]
4: all assays above

CC1=C[C@@H](C(=O)NCc2cc(=O)c(O)c[nH]2)N2C[C@@H]1N(OS(=O)(=O)O)C2=O
4: all assays above

COCC1=C[C@@H](COC)N2C[C@@H]1N(OS(=O)(=O)[O-])C2=O.[Na+]
4: all assays above
